The source of these data is patent publication US10702568B2, “Compositions containing silymarin and sulfoalkyl ether cyclodextrin and methods of using the same” (UNIVERSITY OF KANSAS, priority 2015, dated 2020).

A short description of data set [1]: Pharmacokinetic study in rat. It is filed as in vivo. To be noted: in vivo; for AUC(0-t): AUC(0-2 h) (ng · h/mL); for Cmax: Cmax (ng/mL). The method, then: The Silymarin-CAPTISOL® complex was administered to rat to test its pharmacokinetic properties.
On arrival rats were housed individually in cages at animal care facility in a temperature and humidity controlled room with a 12 h:12 h (light:dark) cycles. The rats were provided with free access to food and water for one week before using for experimental purpose. The 12 rats were equally divided into three groups—Group I: silymarin-CAPTISOL® complex with a CAPTISOL® concentration of 100 mM for oral administration; Group II: silymarin suspension (Control); and Group III: silymarin complex with a CAPTISOL® concentration of 100 mM for intravenous administration. The animals were fasted overnight with free access to water. On the day of experiment, the rat was removed from animal care facility and brought to the procedure lab. The animal was weighed and appropriate dosing volume was determined. For oral administration, rat's head was held in place by gently extending the head back and supporting the lower body. The gavage tube was placed in the mouth and advanced along the lower palate till the esophagus, and the silymarin was administered through the tube. For intravenous administration, the silymarin-CAPTISOL® complex was administered by slow bolus intravenous injection into the tail vein. Approximately 200 μL blood was drawn into heparin coated tubes at pre dose, 0.15, 0.5, 1, 2, 4, 8, 10 and 24 h for oral group II and for intravenous group III. The sampling time points were predose, 0.12, 0.25, 0.5, 1, 2, 4, 8 and 24 h through the jugular vein catheter. Plasma was harvested by centrifuging the blood at 4000 RPM for 5 min and stored frozen at −80±10° C. until analysis.
Stored plasma was thawed just before performing the silymarin components analysis. 200 μL of acetonitrile containing 0.1% of ammonia was added to 50 μL of plasma, and this mixture was vortexed for 5 min and centrifuged at 4° C. for 5 min at 10,000 RPM. After centrifugation, the supernatant was separated and injected into HPLC for analysis of silymarin constituents taxifolin, silydianin, silychristin, silybin A, silybin B, isosilybin A and isosilybin B.
The plasma concentration-time curves of silybin A, silybin B, isosilybin A, and isosilybin B in the Silymarin-CAPTISOL® sample of Group I and the control sample (silymarin suspension) are respectively shown in FIGS. 20A to 20D.

A short description of another data set: physchem. To be noted: 25 °C, water, thermodynamic from solid, Solubility (mg/ml) of flavonolignan components of silymarin.
A short description of data set [2]: Silymarin solubility in water, CAPTISOL® solution and γ-cyclodextrin solution (Example 2, HPLC). It is filed as physicochemical. To be noted: water, thermodynamic from solid, Solubility (mg/ml) of components of silymarin. The method, then:
The solutions were centrifuged for 10 min at 13K rpm. An aliquot of the supernatant was diluted 1:5 for Water, 1:25 for γ-Cyclodextrin and 1:100 for both 0.20 M CAPTISOL® and 0.20M HP-B-Cyclodextrin using MeOH as the diluent. The standard reference was prepared by dissolving silymarin in 10 mg/mL of DMSO and then diluted to 0.50 mg/mL using MeOH.
The change of the saturated solubility of the various components of silymarin in each of the four types of samples can be seen in FIG. 4.
The data shown in Table 6 is plotted in FIGS. 5 and 6. The change of the solubility of the various components of silymarin in each of the three samples can be seen in FIG. 5. The total mutual saturated solubility of all flavonolignan components can be seen in FIG. 6. […] The various components of silymarin also have increased solubility in the CAPTISOL® (0.2M) sample.

Data set [3] can be described thus: Solubility of silymarin components in water (Example 10, HPLC). It is filed as physicochemical. To be noted: water. The method, then:
(§1) Silymarin components including taxifolin, silydianin, silychristin, silybin A, silybin B, isosilybin A, and isosilybin B were tested for their solubility in water and also for their Log D value. The silymarin extract was obtained from Indena® (Indena Code: 9065110). The HPLC system consisted of Waters system equipped with performance PLUS inline degasser along dual λ absorbance detector set at 288 nm. The chromatographic separation of silymarin constituents was achieved on a Symmetry Shield RP18 column (150×4.6 mm, 5 μm); which was maintained at ambient room temperature conditions. The binary mobile phase system consisted of reservoir A (methanol: 10 mM ammonium acetate pH 5 [65:35 v/v]) and reservoir B (10 mM ammonium acetate, pH 5) were run as per gradient program (0-1.9 min: 25% A and 75% B; 2.0-14.9 min: 80% A and 20% B and 15-37.9 min: 80% A and 20% B and 38-40 min: 25% A and 75% B). The flow rate was 1 mL/min throughout the analytical run.

The nature of data set [4]: Log D of silymarin components (octanol/buffer, HPLC). It is filed as physicochemical. Particulars: pH 7.4. The method, then:
as §1
To determine the Log D of silymarin components, the silymarin extract (2 mg) was dissolved in 100% DMSO and then used for the experiment. Different buffers between pH ranges of 1.0 to 12 were prepared by using universal buffer stock containing 25 mM hydrochloric acid, 25 mM citric acid, 25 mM phosphoric acid, 30 mM boric acid and 20 mM sodium chloride. About 45 mL of universal buffer was titrated with Sodium hydroxide (5M) to obtain desired pH. A 10 μL of silymarin stock solution was spiked into Eppendorf tube containing 500 μL each of a buffer and presaturated octanol. This mixture was vortexed for 5 minutes and kept for shaking at room temperature. After 16 h, the mixture was centrifuged at 10,000 RPM for 30 minutes. After centrifugation buffer and octanol phases were separated, both phases were diluted with acetonitrile (1:1) and subject to HPLC analysis for quantitation of individual components of silymarin. The Log D values of each compound at a pH was determined by Log D (pH)=Log [Organic (peak area)/Aqueous (peak area)].

Data set [5] can be described thus: Silymarin saturated solubility with CAPTISOL® (Example 1, HPLC). Particulars: for solubility: 25 °C, thermodynamic from solid, Solubility (mg/ml) of flavonolignan components of silymarin, saturated with excess silymarin.
Protocol: (§2) CAPTISOL® was dissolved in water to form four solutions with a CAPTISOL® concentration of 0.05 mol/L, 0.1 mol/L, 0.2 mol/L, and 0.3 mol/L respectively. 12 mg of silymarin powder (Sigma Aldrich) was added to 1 mL of each of the four CAPTISOL® solutions on Day 1, another 12 mg Silymarin powder was added on Day 3, and 19-22 mg Silymarin powder was added on Day 7 to ensure that silymarin reached its maximum solubility in each solution. The solutions were stirred in a water bath at 25° C. The solutions were then centrifuged prior to sampling. The supernatant was diluted in MeOH in preparation for HPLC assay.
(§3) A reference standard was prepared by mixing silymarin with methanol to provide a methanol solution with a silymarin concentration of 0.1 mg/ml.
(§4) HPLC was used to measure the relative concentrations of the different components of silymarin in each sample solution following the method described in Kuki et al., (2012) Chromatogram 75:175-180. The relative concentration of each component of silymarin was measured by comparing the normalized peak area units with that of the standard reference measured by the UV data at 288 nm and assuming equivalent extinction coefficients for all components.
(§5) The relative molar amounts of the ten flavonolignan components of silymarin were calculated by dividing the normalized peak area of each component in a sample by the total normalized peak area of the sample.
(§6) The concentration of each flavonolignan component of silymarin was calculated from the peak areas in Tables 1a and 1b and the total concentration of silymarin (0.1 mg/ml) in the reference sample, assuming constant extinction coefficients for each component.

Structures are written as SMILES. Values after ≈ are worked out from the molar mass of the structure shown.

Protocol for physchem: as §2, §3, §4, §5, §6

As usually defined, the AUC(0-t) is the area under the concentration-time curve up to a stated or last time point. Lower therefore signals low exposure. Broadly, the Cmax is the maximum level reached in the sampled fluid or tissue. As usually defined, the Tmax is the time from dosing to the highest level. Broadly, the solubility is the dissolved amount per volume that the medium holds. A high value points to much dissolved substance. Broadly, the logD is the decadic logarithm of the distribution of all forms, ionised or not, between an organic phase and buffer at a given pH. Consider `COc1cc([C@H]2Oc3ccc([C@H]4Oc5cc(O)cc(O)c5C(=O)[C@@H]4O)cc3O[C@@H]2CO)ccc1O` [Isosilybin A], for which, in data set [1] (iv), the exposure AUC(0-t) stood at 1970 ng·h/mL and the Cmax stood at 4160 ng/mL. In addition, the Tmax in data set [1] (iv, Tmax (h)) is 4.2 min. In data set [1] (po), the “% Fabs of silymarin-CAPTISOL® complex compared with silymarin alone” value is recorded as “higher % Fabs”, the “AUC of Silymarin-CAPTISOL® complex compared with the control sample” value is listed as “higher AUC”, the “AUC(0-2 h)” value turned out to be 150 ng·h/mL and the “Cmax of Silymarin-CAPTISOL® complex compared with the control sample” value was “higher Cmax”. Also, the Tmax in data set [1] (po, Tmax (h)) stood at 30 min. In the data set “physchem”, this compound registered a solubility of 40 µg/mL (≈ 82.9 µM). This compound also came in with a solubility in data set [2] of 40 µg/mL (≈ 82.9 µM). In data set [3], the solubility amounted to 18.8 µg/mL (≈ 39 µM). In data set [4], this compound returned a logD at 16 h of 2.47.
In data set [1] (iv), `COc1cc([C@@H]2Oc3cc([C@H]4Oc5cc(O)cc(O)c5C(=O)[C@@H]4O)ccc3O[C@H]2CO)ccc1O` [Silybin B] displayed an AUC(0-t) of 5070 ng·h/mL. The same compound came in with a Cmax in data set [1] (iv) of 12700 ng/mL. The Tmax came out at 7.2 min in data set [1] (iv, Tmax (h)); 37.8 min in data set [1] (po); 30 min in data set [1] (po, Tmax (h)). Further, in data set [1] (po), the “AUC(0-2 h)” value is 395 ng·h/mL. Further, the solubility in data set [2] worked out at 30 µg/mL (≈ 62.2 µM); in data set [3], 21.9 µg/mL (≈ 45.4 µM); in data set [5] (0.05 M CAPTISOL in water, aqueous with cosolvent or surfactant or cyclodextrin, CAPTISOL® (0.05M) in water) it was 5590 µg/mL (≈ 11600 µM); in data set [5] (0.1 M CAPTISOL in water, aqueous with cosolvent or surfactant or cyclodextrin, CAPTISOL® (0.1M) in water), 8930 µg/mL (≈ 18500 µM); in data set [5] (0.2 M CAPTISOL in water, aqueous with cosolvent or surfactant or cyclodextrin, CAPTISOL® (0.2M) in water), 13800 µg/mL (≈ 28600 µM); in data set [5] (0.3 M CAPTISOL in water, aqueous with cosolvent or surfactant or cyclodextrin, CAPTISOL® (0.3M) in water), 15800 µg/mL (≈ 32600 µM). The solubility in data set [5] (water, H2O) was found to be 50 µg/mL (≈ 104 µM). The compound further registered a logD at 16 h in data set [4] of 1.99. Besides, the “Percentages of flavonolignan components of silymarin in the sample” value is 24.01% in data set [5] (CAPTISOL® (0.05M), saturated solubility); 23.18% in data set [5] (CAPTISOL® (0.1M), saturated solubility); 20.90% in data set [5] (CAPTISOL® (0.2M), saturated solubility); 21.96% in data set [5] (CAPTISOL® (0.3M), saturated solubility); 7.72% in data set [5] (H2O, saturated solubility, share of total normalized peak area); “about 7.72%” in data set [5] (H2O, saturated solubility, share of total normalized peak area, listed as silybin B). Besides, the “Percentages of flavonolignan components of silymarin in the sample” value in data set [5] (MeOH standard (0.1 mg/ml), reference, share of total normalized peak area) came to 32.00%.
For the compound `COc1cc([C@@H]2[C@H]3CO[C@@]4(O)C(=O)[C@@H]2C=C([C@H]2Oc5cc(O)cc(O)c5C(=O)[C@@H]2O)[C@@H]34)ccc1O` [Silydianin], the results for the solubility (in the data set “physchem”; in data set [2]; in data set [3]) were 70 µg/mL (≈ 145 µM), 120 µg/mL (≈ 249 µM) and 232 µg/mL (≈ 481 µM), respectively. The compound further showed a logD at 16 h in data set [4] of 1.64.
